Results from PubChem BioAssay AID1963858 (Molecular Pharmacology Branch, DTP, NCI, 2024).

Tested on: HOP-62 multicell spheroids with HUVEC/MSC, viability
Assay: Anticancer human tumor HOP-62 cell line growth inhibition [KRAS2];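 also: viability read after a week of compound exposure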;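 as to viability, T/C: 100% = DMSO vehicle-treated spheroids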
Details: for IC50: curve of first compound; for viability, T/C: stronger effect = lower value
In short: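 Combination screen of spheroid viability in tumor-cell co-cultures with endothelial (HUVEC) and mesenchymal stem cell stroma. Each agent was tested in half-log dilutions, topping at clinical Cmax or at 10 microM without a known Cmax.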

[1] = second compound 0.1 µM, first compound 0.000316 µM
[2] = second compound 0.1 µM, first compound 0.001 µM
[3] = second compound 0.1 µM, first compound 0.00316 µM
[4] = second compound 0.1 µM, first compound 0.01 µM
[5] = second compound 0.1 µM, first compound 0.0316 µM
[6] = second compound 0.316 µM, first compound 0.000316 µM
[7] = second compound 0.316 µM, first compound 0.001 µM
[8] = second compound 0.316 µM, first compound 0.00316 µM
[9] = second compound 0.316 µM, first compound 0.01 µM
[10] = second compound 0.316 µM, first compound 0.0316 µM
[11] = second compound 1 µM, first compound 0.000316 µM
[12] = second compound 1 µM, first compound 0.001 µM
[13] = second compound 1 µM, first compound 0.00316 µM
[14] = second compound 1 µM, first compound 0.01 µM
[15] = second compound 1 µM, first compound 0.0316 µM
[16] = second compound 3.16 µM, first compound 0.000316 µM
[17] = second compound 3.16 µM, first compound 0.001 µM
[18] = second compound 3.16 µM, first compound 0.00316 µM
[19] = second compound 3.16 µM, first compound 0.01 µM
[20] = second compound 3.16 µM, first compound 0.0316 µM
[21] = second compound 10 µM, first compound 0.000316 µM
[22] = second compound 10 µM, first compound 0.001 µM
[23] = second compound 10 µM, first compound 0.00316 µM
[24] = second compound 10 µM, first compound 0.01 µM
[25] = second compound 10 µM, first compound 0.0316 µM
[26] = second compound 0.1 µM, first compound 0.1 µM
[27] = second compound 0.316 µM, first compound 0.1 µM
[28] = second compound 1 µM, first compound 0.1 µM
[29] = second compound 3.16 µM, first compound 0.1 µM

Row | Compound | IC50 (second compound 0.1 µM) [pM] | IC50 (second compound 0.316 µM) [pM] | IC50 (second compound 1 µM) [pM] | IC50 (second compound 3.16 µM) [pM] | viability, T/C [1] [%] | viability, T/C [2] [%] | viability, T/C [3] [%] | viability, T/C [4] [%] | viability, T/C [5] [%] | viability, T/C [6] [%] | viability, T/C [7] [%] | viability, T/C [8] [%] | viability, T/C [9] [%] | viability, T/C [10] [%] | viability, T/C [11] [%] | viability, T/C [12] [%] | viability, T/C [13] [%] | viability, T/C [14] [%] | viability, T/C [15] [%] | viability, T/C [16] [%] | also measured
1 | CC(=O)Nc1cccc(-n2c(=O)n(C3CC3)c(=O)c3c(Nc4ccc(I)cc4F)n(C)c(=O)c(C)c32)c1 + CC1OCC2(CCN(c3cnc(Sc4ccnc(N)c4Cl)c(N)n3)CC2)C1N | 2140 | 877 | 167 | < 100 | 86.2 | 67.9 | 41 | 29.1 | 28.5 | 64.2 | 49.8 | 33.8 | 22.9 | 25.8 | 42.8 | 33.5 | 21.5 | 20.2 | 21.5 | 16.9 | IC50 (second compound 10 µM): < 100 pM; viability, T/C (second compound 0.1 µM, first compound 0.0001 µM): 93.8%; viability, T/C (second compound 0.316 µM, first compound 0.0001 µM): 79.8%; viability, T/C (second compound 1 µM, first compound 0.0001 µM): 55.2%; viability, T/C (second compound 3.16 µM, first compound 0.0001 µM): 25.8%; viability, T/C [17]: 14.4%; viability, T/C [18]: 17.7%; viability, T/C [19]: 15.4%; viability, T/C [20]: 15.7%; viability, T/C (second compound 10 µM, first compound 0.0001 µM): 20.2%; viability, T/C [21]: 14.3%; viability, T/C [22]: 15.3%; viability, T/C [23]: 14.2%; viability, T/C [24]: 12.4%; viability, T/C [25]: 13.7%
2 | CC(C)n1nc(-c2ccc3oc(N)nc3c2)c2c(N)ncnc21 + C=CC(=O)N1CCN(c2nc(OCC3CCCN3C)nc3c2CCN(c2cccc4cccc(C)c24)C3)CC1CC#N | < 316 | < 316 | < 316 | < 316 | 36.3 | 30.6 | 14.9 | 12.8 | 11 | 29.9 | 19.6 | 14.9 | 10.6 | 8.56 | 23.1 | 16.1 | 13.3 | 9.5 | 7.25 | 5 | IC50 (second compound 0.0316 µM): 471 pM; viability, T/C (second compound 0.0316 µM, first compound 0.000316 µM): 57.1%; viability, T/C (second compound 0.0316 µM, first compound 0.001 µM): 37%; viability, T/C (second compound 0.0316 µM, first compound 0.00316 µM): 23.5%; viability, T/C (second compound 0.0316 µM, first compound 0.01 µM): 17.5%; viability, T/C (second compound 0.0316 µM, first compound 0.0316 µM): 12.1%; viability, T/C (second compound 0.0316 µM, first compound 0.1 µM): 9.28%; viability, T/C [26]: 8.68%; viability, T/C [27]: 7.08%; viability, T/C [28]: 5.88%; viability, T/C [17]: 0.34%; viability, T/C [18]: 2.87%; viability, T/C [19]: 0.44%; viability, T/C [20]: 0.63%; viability, T/C [29]: 0.48%
3 | CN(C)C/C=C/C(=O)Nc1cc2c(Nc3ccc(F)c(Cl)c3)ncnc2cc1O[C@H]1CCOC1 + COc1cc2nc(C)nc(NC(C)c3cc(N)cc(C(F)(F)F)c3)c2cc1OC1CCOC1 | > 100000 | > 100000 | > 100000 | > 100000 | 105 | 109 | 105 | 107 | 105 | 115 | 107 | 112 | 96.7 | 100 | 107 | 102 | 114 | 106 | 101 | 72.3 | IC50 (second compound 10 µM): > 100000 pM; viability, T/C [26]: 97%; viability, T/C [27]: 97.7%; viability, T/C [28]: 111%; viability, T/C [17]: 64.1%; viability, T/C [18]: 70%; viability, T/C [19]: 64.2%; viability, T/C [20]: 59.8%; viability, T/C [29]: 64.3%; viability, T/C [21]: 73.7%; viability, T/C [22]: 51.6%; viability, T/C [23]: 49.6%; viability, T/C [24]: 62.7%; viability, T/C [25]: 59.9%; viability, T/C (second compound 10 µM, first compound 0.1 µM): 70.8%
